Consider two compounds from US11078175B2, “Substituted dihydrobenzofuran compounds and their use as synergists” (ENDURA S.P.A., priority 2015, dated 2021).

One data set has as its system Bemisia tabaci CYP6CM1. To be noted: recombinant CYP6CM1; 3 μL of 10 mM compound stock in acetone added to 50 μL enzyme; 10 min incubation at room temperature; substrate 7-ethoxycoumarin; acetone-only control.
Data set [1] concerns the target T1, FE4 Myzus persicae esterases (Myzus persicae, UniProt P35502).
T1 construct: would be utilised for the purified esterases from aphids; from tissue; host or cells: aphids (Myzus persicae)
T1 sequence (P35502 24-564): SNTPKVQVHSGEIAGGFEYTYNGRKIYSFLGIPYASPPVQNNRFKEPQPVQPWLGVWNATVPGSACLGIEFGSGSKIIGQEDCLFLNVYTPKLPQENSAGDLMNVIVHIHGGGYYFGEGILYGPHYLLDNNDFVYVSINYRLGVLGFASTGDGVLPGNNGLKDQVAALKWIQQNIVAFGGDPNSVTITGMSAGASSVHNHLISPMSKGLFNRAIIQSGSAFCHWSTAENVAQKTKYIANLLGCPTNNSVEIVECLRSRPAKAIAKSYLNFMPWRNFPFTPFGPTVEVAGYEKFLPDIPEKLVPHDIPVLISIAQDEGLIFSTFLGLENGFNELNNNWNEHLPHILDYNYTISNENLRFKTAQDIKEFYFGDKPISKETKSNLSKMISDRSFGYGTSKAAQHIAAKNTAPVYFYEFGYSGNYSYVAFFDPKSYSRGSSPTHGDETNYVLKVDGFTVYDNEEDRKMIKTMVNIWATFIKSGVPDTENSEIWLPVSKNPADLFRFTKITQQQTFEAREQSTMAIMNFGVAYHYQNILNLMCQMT
Put plainly: Inhibition of esterase enzymes, 4-nitrophenyl acetate substrate with purified FE4. The format is biochemical. As to conditions: 2.5 μL of 10 mM compound in acetone added to 50 μL, 10 min incubation, substrate 4-nitrophenyl acetate 0.8 mM final, acetone-only control. On the procedure: It was envisaged, therefore, that the ‘esterase intereference assay’ (Khot et al., 2008) would be utilised for the purified esterases from aphids. Various esterase substrates were assessed to find one suitable of monitoring inhibition in an insect homogenate. The Myzus persicae resistance associated esterase, FE4, was used.
From the literature (Philippou et al., 2013) it is known that 1-naphthyl acetate is not suitable for this assay. Instead, 4-nitrophenyl acetate was used. A 10 mM pNA stock was prepared in acetone and added to 0.02 M phosphate buffer pH 7.0 (final concentration 2 mM). The comparison was made with 6 PBO analogues of variable efficacy.
For the assay 10 μL of purified FE4 was diluted to a total volume of 50 μL by the addition of 0.02 M phosphate buffer, pH 7.0 in individual wells of a microplate (maxisorb, NUNC). To each well, 2.5 μL of 10 mM of the compound of Example 1 and of Example 2 in acetone was added and incubated for 10 mins, with acetone only used as a control. Following incubation, 100 μL of 0.02 M phosphate buffer, pH 7.0 and 100 μL of 2 mM 4-nitrophenyl acetate was added (final volume in well 250 μL, final substrate concentration 0.8 mM). Enzyme activity was read at 405 nm in a Spectramax Tmax for 5 min, with readings taken every 5 secs. The rate (mOD min^−1) was calculated by the integrated software, Softmax Pro v.5.4.

What is called remaining activity is the share of the control activity or signal that is left under treatment. Low readings indicate little activity left, high ones much activity left.

SMILES strings stand for the structures.

Protocol for Bemisia tabaci CYP6CM1: Ability of the compounds of the invention to inhibit oxidative enzymes (P450), a major mechanism conferring resistance to xenobiotics, was measured using recombinant enzymes corresponding to CYPCM1 from Bemisia tabaci.
Diluted recombinant enzyme (50 μL) was mixed with 3 μL of a.m compounds stock solutions, with acetone only used as a control. After 10 min incubation at room temperature, 80 μL of 0.125 mM 7-ethoxycoumarin was added, followed by 10 μL 9.6 mM NADPH (nicotinamide adenine dinucleotide phosphate) in 0.1 M sodium phosphate, pH 7.8, and 0-deethylation activity monitored as above. A PBO solution (10 mM) was prepared in the same way as a comparison.

For the compound `CCCCOCCOCCOCc1cc(CCC)cc2c1OCC2` [Compound of Example 1, 5-propyl-7-[[2-(2-Butoxyethoxy)ethoxy]methyl]-2,3-dihydrobenzo furan], the “% activity remaining” value in the data set on Bemisia tabaci CYP6CM1 stood at 38.47%. The compound also registered a remaining activity at 10000 µM (stock) in data set [1] of 33.2%.
For `CCCCCCc1cc2c(c(COCCOCCOCCCC)c1)OCC2` [Compound of Example 2, 5-n-hexyl-7-[[2-(2-Butoxyethoxy)ethoxy]methyl]-2,3-dihydrobenzo furan] the same measures were 86.22% and 40.6%.
